A value given as a limit tells only on which side of the number the result lay.

These results are taken from patent US4410544A, “Platinum-diamine complexes, a method for the preparation of a medicine using such a platinum-diamine complex for the treatment of malignant tumor in mice” (priority 1978, dated 1983).

For data set [1], the system named is B 16 melanocarcinoma (B1). Briefly: Anti-cancerous activity in mice, B 16 melanocarcinoma (B1). The class given is in vivo, mouse. The following applies: B16, B6 D2 (BDF) mice. An excerpt:
(§1) An extensive research program carried out by the National Cancer Institute, Bethesda, Md., and the European Organization for Research on the Treatment of Cancer, Brussels, Belgium, has shown that when compared to PDD, compounds according to this invention, particularly compounds having the following formulas display a high therapeutic activity against a great number of different mammalian types of tumor, such as P 388 lymphocytic leukemia (PS), L-1210 lymphoid leukemia (LE), ependymoblastoma (EM), B 16 melanocarcinoma (B1) and a line of L-1210 leukemia resistant to cis-PDD (LE/cis-PDD): [drawing 9]
(§2) More detailed information concerning the testing procedure and their interpretation are contained in Instruction 14, Screening Data Summary, Interpretation and Outline of Current Screen, Drug Evaluation Branch, National Cancer Institute, Bethesda, Md., 20014 (1977) which is incorporated herein by reference.
(§3) *Period of survival is the ratio of survival times of the treated mice (T
(§4) to untreated mice (C); the therapeutic activity is significant at T/C
(§5) ≥ 125. The figures include dying mice only. A cure is defined as a
(§6) mouse free of tumors 45 days after injection, as determined by visual

Data set [2] deals with L-1210 lymphoid leukemia (LE). Briefly: Anti-cancerous activity in mice, L-1210 lymphoid leukemia (LE). The class given is in vivo, mouse.
Description: as §1, §2, §3, §4, §5, §6
(§7) **For Formula 12-cis PDD the mice were injected with 10^6 L1210
(§8) ascites cells. One I.P. injection of the test compound was given to each

The nature of data set [3]: Lethal doses LD10 / LD50 given with the BUN test in the rat.
In data set [4] the test system is P 388 lymphocytic leukemia (PS). In words: Anti-cancerous activity in mice, P 388 lymphocytic leukemia (PS). The class given is in vivo, mouse. The following applies: CD2 F1 mice.
Description: as §1, §2, §3, §4, §5, §6

In data set [5] the test system is ependymoblastoma (EM). In words: Anti-cancerous activity in mice, ependymoblastoma (EM). In kind it is in vivo, mouse.
Description: as §1, §2, §3, §4, §5, §6

For data set [6], the system named is L-1210 leukemia resistant to cis-PDD (LE/cis-PDD). In words: Anti-cancerous activity in mice, L-1210 leukemia resistant to cis-PDD (LE/cis-PDD). In kind it is in vivo, mouse. Particulars: for cures (mice free of tumors 45 days after injection) / T/C (period of survival, treated/untreated): LE/cis PDD, BDF1 mice; for cures (mice free of tumors 45 days after injection): of six mice; for T/C (period of survival, treated/untreated): one I.P. injection; for effectiveness against the cis-PDD resistant line of L-1210 versus the parent line: mice.
Description: as §1, §2, §3, §4, §5, §6, §7, §8

For data set [7] the following is noted: literature; cited from earlier work.
The conditions of data set [8]: literature; cited from earlier work. This is another data set of the same source.
Data set [9] is described as follows: Urea-nitrogen in the blood after administering platinum complexes (in the rat). The class given is in vivo. The method, then:
Percentage of urea-nitrogen in the blood after
administering platinum complexes (in the rat).
Both at doses corresponding with the LD10 -amount and at those corresponding with the LD50 -amount the urea-nitrogen contents in the blood are identical to the control values. BUN values≥30 mg% are generally considered indicative of drug-induced nephrotoxicity. […] In was found by means of a histological examination of rats after treatment with toxic doses of compounds of this invention, that these compounds display little or no kidney toxicity.

Data set [10] has as its system cancer. Particulars: literature, cited from earlier work.
The subject of data set [11] is mammalian types of tumor. In words: Therapeutic activity against mammalian tumors (NCI / EORTC program). The following applies: mice; Table A experiments. The class given is in vivo, mouse.
Description: as §1, §2

The mark [12] stands for this setting: CD2 F1 mice, 12.50 mg/kg per injection.
Where [13] appears, read: 6.25 mg/kg per injection, significant at T/C ≥ 125.
[14] abbreviates: BDF1 mice, 50.00 mg/kg, one I.P. injection, 10^6 L1210 ascites cells.

As to `NCC1(CN)CCCCC1.[Cl][Pt][Cl]` [Formula 4, Cis-dichloro-1,1-di(aminomethyl)cyclohexane platinum(II)], the “T/C (period of survival, treated/untreated)” value in data set [1] (1.50 mg/kg per injection) is recorded as 190%; in [1] (3.00 mg/kg per injection) it was 208%; in [1] (6.00 mg/kg per injection), 208%; in [2] (CD2 F1 mice, 3.12 mg/kg per injection), 145%; in data set [2] (CD2 F1 mice, 6.25 mg/kg per injection), 180%; in [2] (setting [12]), 234%. The “T/C (period of survival, treated/untreated)” value is on record as 153% in data set [4] (1.56 mg/kg per injection); 181% in data set [4] (3.12 mg/kg per injection); 201% in data set [4] (setting [13]); 126% in data set [5] (C57BL/6 mice, 6.00 mg/kg per injection). The compound also registered an LD10 in data set [3] of 8 mg/kg. In data set [3], this compound yielded a median lethal dose (LD50) of 15 mg/kg.

As for `NCC1(CN)CCCCC1.O=C1[O][Pt][O]C(=O)C12CCCCC2` [Formula 7, Cis-cyclopentamethylene malonato-1,1-di(aminomethyl)cyclohexane platinum(II)], the “T/C (period of survival, treated/untreated)” value in data set [2] (CD2 F1 mice, 80.00 mg/kg per injection) amounted to 138%; in [4] (setting [13]), 162%; in data set [4] (12.50 mg/kg per injection), 177%; in data set [4] (25.00 mg/kg per injection) it was 226%; in data set [5] (57BL/6 mice, 6.25 mg/kg per injection) it was 130%; in data set [5] (57BL/6 mice, 12.50 mg/kg per injection) it was 163%.

Take `CCC(C)(CN)CN.[Cl][Pt][Cl]` [Formula 8, Cis-dichloro-(2-methyl-2-ethyl)-1,3-propane diamine platinum (II)]: the “T/C (period of survival, treated/untreated)” value in data set [2] (setting [12]) stood at 289%.

On to `CCC(CC)(CN)CN.[Cl][Pt][Cl]` [Formula 9, Cis-dichloro-2,2-diethyl-1,3-propane diamine platinum(II)], for which, in data set [2] (setting [12]), the “T/C (period of survival, treated/untreated)” value is reported as 323%.

Regarding `NCC1(CN)CCCC1.[Cl][Pt][Cl]` [Formula 10, Cis-dichloro-1,1-di(aminomethyl)cyclopentane platinum(II)], the “T/C (period of survival, treated/untreated)” value in [2] (setting [12]) amounted to 148%.

Turning to `NCC1(CN)CCCCC1.O=S(=O)([O-])[O-].[Pt+2]` [Formula 11, Cis-1,1-di(aminomethyl)cyclohexane platinum(II) sulphate], the “T/C (period of survival, treated/untreated)” value in [2] (setting [12]) is reported as 274%.

On to `NCC1(CN)CCC1.[Cl-].[Cl-].[Pt+2]` [Formula 12, Cis-dichloro-1,1-di(aminomethyl)cyclobutane platinum(II)], for which, in data set [2] (BDF1 mice, 15.00 mg/kg, one I.P. injection, 10^6 L1210 ascites cells), the “T/C (period of survival, treated/untreated)” value amounted to 208%.

On to `NCC(CN)(Cc1ccccc1)Cc1ccccc1.[Cl][Pt][Cl]` [Formula 13, Cis-dichloro-2,2-dibenzyl-1,3-propane diamine platinum(II)], for which the “T/C (period of survival, treated/untreated)” value in [2] (setting [14]) turned out to be 135%.

`CC(C)C(CN)(CN)C(C)C.[Cl-].[Cl-].[Pt+2]` [Formula 14, Cis-dichloro-2,2-diisopropyl-1,3-propane diamine platinum(II)]: the “T/C (period of survival, treated/untreated)” value in [2] (setting [14]) was determined as 178%.

For the compound `NCC1(CN)CCCCC1.O=C(O)c1ccc2c(c1)C(=O)[O][Pt][O]C2=O` [Formula 15, Cis-4-carboxyphthalato-1,1-di(aminomethyl)-cyclohexane platinum (II)], in [2] (BDF1 mice, 40.00 mg/kg, one I.P. injection, 10^6 L1210 ascites cells), the “T/C (period of survival, treated/untreated)” value is recorded as 200%.

Regarding `NCC1(CN)CCCCC1.O=C(CCl)[O][Pt][O]C(=O)CCl` [Formula 16, Cis-1,1-di(aminomethyl)-cyclohexane-bis(chloroacetato)platinum(II)], in [2] (BDF1 mice, 6.00 mg/kg, one I.P. injection, 10^6 L1210 ascites cells), the “T/C (period of survival, treated/untreated)” value is 207%.

On to `CCC(CC)(CN)CN.O=S(=O)([O-])[O-].[Pt+2]` [Formula 17, Cis-2,2-diethyl-1,3-propanediamine platinum(II) sulphate], for which, in data set [2] (BDF1 mice, 12.00 mg/kg, one I.P. injection, 10^6 L1210 ascites cells), the “T/C (period of survival, treated/untreated)” value is listed as 200%. Moreover, in data set [6] (6.00 mg/kg), the “cures (mice free of tumors 45 days after injection)” value was 3/6 and the “T/C (period of survival, treated/untreated)” value is recorded as greater than 500%. The “effectiveness against the cis-PDD resistant line of L-1210 versus the parent line” value (from here on “effectiveness … of L-1210 versus the parent line”) in data set [6] is reported as “even more effective against the cis-PDD resistant line of L-1210 than they are against the parent line of L-1210”.

Regarding `NCC1(CN)CCCCC1.O=C([O-])CC(=O)[O-].[Pt+2]` [Formula 18, Cis-1,1-di(aminomethyl)-cyclohexanemalonato platinum(II)], the “cures (mice free of tumors 45 days after injection)” value in [2] (BDF1 mice, 64.00 mg/kg, of six mice) is 1/6. Also, the “T/C (period of survival, treated/untreated)” value came out at 200% in data set [2] (BDF1 mice, 64.00 mg/kg, one I.P. injection, dying mice only) and 230% in data set [6] (16.00 mg/kg). In addition, in data set [6], the “effectiveness … of L-1210 versus the parent line” value is recorded as “even more effective against the cis-PDD resistant line of L-1210 than they are against the parent line of L-1210”.

In the case of `NCC1(CN)CCCCC1.O=C1[O][Pt][O]C(=O)C1O` [Formula 19, Cis-1,1-di(aminomethyl)cyclohexanehydroxymalonato platinum(II)], the “T/C (period of survival, treated/untreated)” value in [2] (BDF1 mice, 36.00 mg/kg, one I.P. injection, 10^6 L1210 ascites cells) is reported as 246%; in data set [6] (24.00 mg/kg) it was greater than 500%. Further, the “cures (mice free of tumors 45 days after injection)” value in data set [6] (24.00 mg/kg) is listed as 3/6. Besides, in data set [6], the “effectiveness … of L-1210 versus the parent line” value is recorded as “even more effective against the cis-PDD resistant line of L-1210 than they are against the parent line of L-1210”.

Turning to “cis-dichlorobiscyclopentyl amine platinum(II)”, the kidney toxicity entry in [7] is “only slightly toxic to the kidneys”. Further, in data set [8], the spleen toxicity entry is on record as “toxic to the spleen”.

Turning to cis-platinum diamine dichloride [PDD], the “Percentage of urea-nitrogen in blood” value in [9] (3 mg/kg (LD10), 0 days after injection) came to 10%; in data set [9] (3 mg/kg (LD10), 2 days after injection), 13%; in [9] (3 mg/kg (LD10), 4 days after injection), 52%; in [9] (7.6 mg/kg (LD50), 0 days after injection) it was 10%; in data set [9] (7.6 mg/kg (LD50), 2 days after injection) it was 78%; in data set [9] (7.6 mg/kg (LD50), 4 days after injection), 148%. For the same compound, in data set [9] (LD10 dose, 4 days after injection), the “increase in the urea nitrogen content” value was “about a quadruple increase”. The “T/C (period of survival, treated/untreated)” value in data set [1] (2.00 mg/kg per injection) is recorded as 197%; in [2] (BDF1 mice, 8.00 mg/kg, one I.P. injection, 10^6 L1210 ascites cells), 183%; in data set [6] (4-8 mg/kg) it was 106-121%. Also, the LD10 in data set [3] is listed as 3 mg/kg. The LD50 in data set [3] is listed as 7.6 mg/kg. Also, in data set [10], the therapeutic index entry is listed as “low therapeutic index”. Also, in [10] (treatment of cancer), the toxicity result is “Toxicity is a very serious drawback”. Further, the complete cures entry in [11] is given as “not observed”.

A word on the LD50: it is the dose at which mortality reaches 50%.
